Residue numbers refer to the chain shown, from its start. Read-outs that look alike come from different tables or passages of the source. Where a SMILES comes first, the peptide text is derived from it.
Experiments:
MOB1A = biological target: T1, MOB1A (Homo sapiens, UniProt Q9H8S9); assay: Fluorescence polarization peptide binding assay, MOB1A wild-type; conditions: FP, 20 nM FITC labeled peptide, pH 7.5
T1 construct: MOB1A (2–216, NP_060691); 6xHis (N, cleaved yes); GST (N, cleaved yes); made in house; host or cells: E. coli BL21 (DE3) CodonPlus RIL
T1 sequence (Q9H8S9 2-216): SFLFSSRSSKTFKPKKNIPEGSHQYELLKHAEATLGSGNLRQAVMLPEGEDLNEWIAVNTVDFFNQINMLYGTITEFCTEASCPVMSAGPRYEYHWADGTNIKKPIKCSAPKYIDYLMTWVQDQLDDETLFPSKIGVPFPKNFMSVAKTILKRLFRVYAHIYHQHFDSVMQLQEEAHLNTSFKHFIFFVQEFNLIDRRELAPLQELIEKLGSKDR
Source text: (§1) Human MST1 kinase domain (amino acids 2–326, corresponding to NCBI RefSeq protein NP_006273), MST2 kinase domain (2–322, NP_006272), MOB1B (2–216, NP_001231695), MOB1A (2–216, NP_060691) wild-type and indicated MOB1A mutant proteins, MOB2 (2–237, NP_001165694), MOB3A (2–217, NP_570719), MOB3B (2–216, NP_079037), MOB3C (2–216, NP_660322), MOB4 (2–225, NP_056202), MOB4^RRR→AAA (2–225), and yeast Mob1 (79–314, NP_012160) were expressed in E. coli BL21 (DE3) CodonPlus RIL cells as N-terminal dual 6xhistidine (HIS) and glutathione S-transferase (GST), Tobacco Etch Virus (TEV) cleavable, fusion proteins using a modified pETM-30 vector. MOB wild-type and mutants were purified in batch on glutathione-Sepharose resin (GE Healthcare, Uppsala, Sweden) and eluted by cleavage from the affinity tags with HIS tagged TEV protease. TEV protease was removed from the eluted protein by subtractive immobilized-metal affinity chromatography. Cleaved protein was then concentrated and buffer exchanged by size exclusion chromatography (SEC) using a Superdex 75 120 ml column (GE Healthcare). For GST pull-downs and Far-Western analysis, the TEV cleavage step was omitted.
MST1 phosphopeptides encompassing pT353 and pT367 (15-mers) used for crystallization and FITC labeled nonphosphorylated and phosphorylated MST1 T353 peptides, T367 peptides, T329-T340 peptides, T380-T387 peptides and optimized Nud1-like peptides for fluorescence polarization binding experiments were purchased from Biomatik (Cambridge, ON). Peptide sequences used for crystallization studies are: T353, […](p)TMIEH and T367, […](p)TMVINA. All peptides used for biophysical studies are listed in supplemental Table S1.
Twelve-point fluorescence polarization binding measurements were performed in triplicate in 384-well plate format using an Analyst HT (Artisan-Scientific, Sunnyvale, CA) reader. Each 20 μl measurement condition contained 20 nM FITC labeled MST1 peptide or Nud1-like peptide and the indicated concentration of MOB proteins in 25 mM HEPES pH 7.5, 150 mM NaCl, 2 mM DTT, and 1 mg/ml bovine serum albumin (BSA). Kd values were obtained by fitting the results to a one site-specific binding model using GraphPad Prism.

MOB1A KRR→3A mutant = biological target: T2, MOB1A KRR→3A mutant (Homo sapiens, UniProt Q9H8S9, K153A/R154A/R157A); assay: Fluorescence polarization peptide binding assay, MOB1A KRR→3A mutant (K153, R154, R157 to alanine); conditions: Fig. 2B, MOB1A KRR→3A (K153, R154, R157 to alanine); FP, 20 nM FITC labeled peptide, pH 7.5; n = 3; N.D. = Kd could not be determined
T2 construct: MOB1A (2–216, NP_060691) wild-type and indicated MOB1A mutant proteins; 6xHis (N, cleaved yes); GST (N, cleaved yes); made in house; host or cells: E. coli BL21 (DE3) CodonPlus RIL
T2 sequence (Q9H8S9 2-216 K153A/R154A/R157A): T1 sequence (Q9H8S9 2-216) with K152A, R153A, R156A
Source text: as §1, with “TEV protease was removed from the eluted protein by subtractive immobilized-metal affinity chromatography. Cleaved protein was then concentrated and buffer exchanged by size exclusion chromatography (SEC) using a Superdex 75 120 ml column (GE Healthcare). For GST pull-downs and Far-Western analysis, the TEV cleavage step was omitted.” left out
(§2) MST1 phosphopeptides encompassing pT353 and pT367 (15-mers) used for crystallization and FITC labeled nonphosphorylated and phosphorylated MST1 T353 peptides, T367 peptides, T329-T340 peptides, T380-T387 peptides and optimized Nud1-like peptides for fluorescence polarization binding experiments were purchased from Biomatik (Cambridge, ON). […]
(§3) Twelve-point fluorescence polarization binding measurements were performed in triplicate in 384-well plate format using an Analyst HT (Artisan-Scientific, Sunnyvale, CA) reader. […]

MOB3A = biological target: T3, MOB3A (Homo sapiens, UniProt Q96BX8); assay: Fluorescence polarization peptide binding assay, MOB3A; conditions: Fig. 5A, FP, 20 nM FITC labeled peptide, pH 7.5, mean ± S.E. (n = 3), read-out: Kd, μM (to MST1 pT367 peptide)
T3 construct: MOB3A (2–217, NP_570719); 6xHis (N, cleaved yes); GST (N, cleaved yes); made in house; host or cells: E. coli BL21 (DE3) CodonPlus RIL
T3 sequence (Q96BX8 2-217): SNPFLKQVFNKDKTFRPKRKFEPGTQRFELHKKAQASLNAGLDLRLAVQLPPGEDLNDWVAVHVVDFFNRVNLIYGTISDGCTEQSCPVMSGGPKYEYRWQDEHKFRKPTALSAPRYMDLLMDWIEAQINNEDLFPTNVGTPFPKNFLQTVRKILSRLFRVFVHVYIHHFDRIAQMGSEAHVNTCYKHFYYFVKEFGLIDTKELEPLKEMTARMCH
Source text: as §1, with “TEV protease was removed from the eluted protein by subtractive immobilized-metal affinity chromatography. Cleaved protein was then concentrated and buffer exchanged by size exclusion chromatography (SEC) using a Superdex 75 120 ml column (GE Healthcare). For GST pull-downs and Far-Western analysis, the TEV cleavage step was omitted.” left out
as §2, §3

MOB3B = biological target: T4, MOB3B (Homo sapiens, UniProt Q86TA1); assay: Fluorescence polarization peptide binding assay, MOB3B; conditions: Fig. 5A, FP, 20 nM FITC labeled peptide, pH 7.5, mean ± S.E. (n = 3), read-out: Kd, μM (to MST1 pT367 peptide)
T4 construct: MOB3B (2–216, NP_079037); 6xHis (N, cleaved yes); GST (N, cleaved yes); made in house; host or cells: E. coli BL21 (DE3) CodonPlus RIL
T4 sequence (Q86TA1 2-216): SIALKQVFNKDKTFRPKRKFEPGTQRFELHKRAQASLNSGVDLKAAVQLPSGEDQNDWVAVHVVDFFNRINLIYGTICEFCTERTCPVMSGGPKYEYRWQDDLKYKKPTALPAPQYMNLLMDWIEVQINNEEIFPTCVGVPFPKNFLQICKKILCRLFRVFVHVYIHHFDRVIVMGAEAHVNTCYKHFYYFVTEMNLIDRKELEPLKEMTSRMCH
Source text: as §1, with “TEV protease was removed from the eluted protein by subtractive immobilized-metal affinity chromatography. Cleaved protein was then concentrated and buffer exchanged by size exclusion chromatography (SEC) using a Superdex 75 120 ml column (GE Healthcare). For GST pull-downs and Far-Western analysis, the TEV cleavage step was omitted.” left out
as §2, §3

MOB3C = biological target: T5, MOB3C (Homo sapiens, UniProt Q70IA8); assay: Fluorescence polarization peptide binding assay, MOB3C; conditions: Fig. 5A, FP, 20 nM FITC labeled peptide, pH 7.5, mean ± S.E. (n = 3), read-out: Kd, μM (to MST1 pT367 peptide)
T5 construct: MOB3C (2–216, NP_660322); 6xHis (N, cleaved yes); GST (N, cleaved yes); made in house; host or cells: E. coli BL21 (DE3) CodonPlus RIL
T5 sequence (Q70IA8 2-216): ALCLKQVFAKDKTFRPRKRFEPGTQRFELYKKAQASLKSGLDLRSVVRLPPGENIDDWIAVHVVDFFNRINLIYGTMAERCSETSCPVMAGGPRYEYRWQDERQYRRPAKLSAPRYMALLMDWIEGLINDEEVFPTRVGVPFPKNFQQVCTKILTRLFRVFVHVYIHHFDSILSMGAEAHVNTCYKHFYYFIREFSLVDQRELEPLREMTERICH
Source text: as §1, with “TEV protease was removed from the eluted protein by subtractive immobilized-metal affinity chromatography. Cleaved protein was then concentrated and buffer exchanged by size exclusion chromatography (SEC) using a Superdex 75 120 ml column (GE Healthcare). For GST pull-downs and Far-Western analysis, the TEV cleavage step was omitted.” left out
as §2, §3

MOB4 = biological target: T6, MOB4 (Homo sapiens, UniProt Q9Y3A3); assay: Fluorescence polarization peptide binding assay, MOB4; conditions: Fig. 5A, FP, 20 nM FITC labeled peptide, pH 7.5, mean ± S.E. (n = 3), read-out: Kd, μM (to MST1 pT367 peptide)
T6 construct: MOB4 (2–225, NP_056202); 6xHis (N, cleaved yes); GST (N, cleaved yes); made in house; host or cells: E. coli BL21 (DE3) CodonPlus RIL
T6 sequence (Q9Y3A3 2-225): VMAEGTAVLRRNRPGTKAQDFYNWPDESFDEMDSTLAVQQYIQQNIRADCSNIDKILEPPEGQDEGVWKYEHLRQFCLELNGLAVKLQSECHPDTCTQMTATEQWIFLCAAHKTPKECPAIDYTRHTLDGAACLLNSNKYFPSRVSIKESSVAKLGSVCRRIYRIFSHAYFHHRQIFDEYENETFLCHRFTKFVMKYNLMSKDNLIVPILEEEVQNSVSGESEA
Source text: as §1, with “TEV protease was removed from the eluted protein by subtractive immobilized-metal affinity chromatography. Cleaved protein was then concentrated and buffer exchanged by size exclusion chromatography (SEC) using a Superdex 75 120 ml column (GE Healthcare). For GST pull-downs and Far-Western analysis, the TEV cleavage step was omitted.” left out
as §2, §3

GST-MOB1B = assay: Peptide array Far-Western overlay with GST-MOB1B; type: binding, human; conditions: cellulose-bound 15-mer peptide SPOT array probed with 1 μg GST-MOB1B at 20 °C overnight, anti-GST HRP detection
Experimental: Cellulose-bound peptide arrays were prepared employing Fmoc solid phase peptide synthesis using a MultiPep-RSi-Spotter (INTAVIS, Köln, Germany) according to the SPOT synthesis method provided by the manufacturer, and previously described ([29]). Peptides were synthesized on amino-functionalized cellulose membranes (Whatman™ Chromatography paper Grade 1CHR, GE Healthcare Life Sciences #3001–878) and the presence of SPOTed peptides was confirmed by ultraviolet light (UV, λ = […]). Peptide sequences were chosen for each of the phosphorylated sites within the sequence encompassing residues 327 to 487 of MST1 as reported in PhosphositePlus (31/01/2014, ref 30). In addition, 15 amino acid-long peptides spanning the entire MST1 linker region (aa 327–487) were also synthesized in both phospho- and nonphosphorylated versions (for every serine, threonine, or tyrosine position; supplemental Fig. S1). Subsequent arrays were generated by alanine scanning from the pT353 and pT367 peptide sequences. The peptide arrays were soaked in 100% ethanol and blocked in 5% milk in H2O for 6 h at 20 °C. One microgram of GST-MOB1B (or GST alone) was used to probe the arrays at 20 °C overnight. Following washes with PBS plus 0.1% Tween-20, the arrays were blocked again in 5% milk for 1 h. […]

yeast Mob1 = yeast Mob1 binding to Nud1 short linear phosphopeptide motif; cited from earlier work
Source text: Key to its function as a Hippo pathway activator is the ability of MOB1 to bind directly to MST1 and MST2 kinases. Recent structural studies provided key insight into the underlying mechanism of binding.

[1] = recombinant wild-type MOB1A, read-out: Kd

Molecule: CC[C@H](C)[C@H](NC(=O)[C@H](CCSC)NC(=O)[C@@H](NC(=O)[C@H](CC(N)=O)NC(=O)[C@H](C)NC(=O)CNC(=O)[C@H](CC(=O)O)NC(=O)[C@@H](NC(=O)[C@H](CCSC)NC(=O)[C@@H](NC(=O)[C@H](CO)NC(=O)[C@H](C)NC(=O)[C@@H](N)C(C)C)[C@@H](C)O)[C@@H](C)O)[C@@H](C)OP(=O)(O)O)C(=O)N[C@@H](CCC(=O)O)C(=O)N[C@@H](Cc1c[nH]cn1)C(=O)O [pT353] (HELM PEPTIDE1{V.A.S.T.M.T.D.G.A.N.[C[C@@H](OP(=O)(O)O)[C@H](N[*:1])C(=O)[*:2]].M.I.E.H}$$$$V2.0)
- Kd (MOB1A; [1]): 0.28 µM
- Kd (MOB1A KRR→3A mutant): no measurable binding

Molecule: CC[C@H](C)[C@H](NC(=O)[C@@H](NC(=O)[C@H](CCSC)NC(=O)[C@@H](NC(=O)CNC(=O)[C@H](CC(C)C)NC(=O)[C@H](CCC(N)=O)NC(=O)[C@H](CO)NC(=O)[C@@H]1CCCN1C(=O)[C@H](CC(C)C)NC(=O)[C@@H](NC(=O)[C@H](CC(=O)O)NC(=O)[C@@H](N)CC(=O)O)[C@@H](C)O)[C@@H](C)OP(=O)(O)O)C(C)C)C(=O)N[C@@H](CC(N)=O)C(=O)N[C@@H](C)C(=O)O [pT367] (HELM PEPTIDE1{D.D.T.L.P.S.Q.L.G.[C[C@@H](OP(=O)(O)O)[C@H](N[*:1])C(=O)[*:2]].M.V.I.N.A}$$$$V2.0)
- Kd (MOB1A; [1]): 0.68 µM
- Kd (MOB1A; Fig. 5A, MOB1A, mean ± S.E. (n = 3), read-out: Kd, μM (to MST1 pT367 peptide)): 0.67 ± 0.09 µM
- Kd (MOB1A KRR→3A mutant): no measurable binding
- Kd (MOB3A): 2 to 3 µM
- Kd (MOB3B): 2 to 3 µM
- Kd (MOB3C): 2 to 3 µM
- Kd (MOB4): 12.2 µM

Molecule: AKPSFLEYFEQKEKE [MST1 residues 391 to 405]
- binding signal in Far-Western peptide array (GST-MOB1B): sufficient to bind to MOB1B

Molecule: TVLNNYSpTVHQKVPS
- Kd (yeast Mob1): 2400 nM

Source: article PMC5461540, “MOB1 Mediated Phospho-recognition in the Core Mammalian Hippo Pathway” (Molecular & Cellular Proteomics : MCP, 2017)
